Source: patent publication US20090117089A1, “GLYCOLIPIDS AND ANALOGUES THEREOF AS ANTIGENS FOR NK T CELLS” (The Rockefeller University, priority 2005, published 2009)
“Also recorded” adds a separate entry of the source.

Key:
[1] = system: spleen CD11c+ cells (DCs and NK cells); assay: Cytokine production by DCs after in vivo glycolipid; design: species or system mouse
Procedure: Cytokine production by DCs. After mice were given αGalCer or Compound 24 i.v., CD11c+ cells were isolated with anti-CD11c magnetic beads and cultured 4 h in the presence of Golgistop (from Cytofix/CytoPerm Plus kit; BD Biosciences). Cells were then stained for surface markers (CD11c and DX-5), permeabilized in 100 μl Cytofix/Cytoperm solution using manufacturer's instructions and stained for intracellular cytokines (IFN-γ and IL-12).

[2] = system: serum IFN-γ, IL-12p70 and other cytokines; assay: Serum cytokines (Luminex); type: in vivo, mouse
Procedure: Serum cytokines. […] 25 μl of sample was preincubated with serum diluent and incubated for 2 h with Beadmates coated with anti-cytokine mAbs. The fluid was then aspirated and the wells incubated for 1.5 h with biotin-conjugated anti-cytokine mAbs followed by 30 min incubation with Beadlyte streptavidin-PE secondary antibody. Samples were acquired in duplicate by Luminex and analyzed using Beadview software (Upstate).

[3] = system: human NKT cells (Vα24/Vβ11); assay: Human dendritic cell mediated NKT cell expansion; type: cell-based; settings: DCs loaded with glycolipid; data not shown
[4] = system: DCs from bone marrow progenitors; assay: Direct DC maturation from bone marrow progenitors in culture; type: cell-based; settings: data not shown
J558 tumor cells = assay: Tumor protection assay, J558 plasmacytoma; type: in vivo, mouse
Procedure: (§1) 2×10^7 irradiated J558-Ld^− cells, were injected i.v. or s.c. into Balb/c mice with or without α-Gal Cer as a DC maturation stimulus. In some experiments we compared α-Gal Cer to agonistic anti-CD40 mAb (1C10, 25 μg i.p.) or the toll like receptor ligands, poly IC ([…], Invivogen) or lipopolysaccharide (20 μgm, Sigma). The mice had been given CFSE-labeled PICTL CD8^+ T cells i.v. 1 d earlier, or were naive animals. In some experiments, mice were sacrificed 3 d later, and T cell division and activation in spleen were analyzed by flow cytometry. Additionally, 7 d or 2 months later, 5×10^6 live J558 tumor cells were inoculated subcutaneously. 5×10^6 Meth A fibrosarcoma was used as a control tumor for challenge. Tumor cell growth was measured with calipers every other day. Mice were scored positive for tumor as soon as tumors became palpable and grew progressively. Mice were euthanized when tumor size exceeded 400 mm^2.
Mice vaccinated with J558 and α-Gal Cer were injected with ascites containing 1 mg of rat monoclonal anti-CD4 (clone GK 1.5) or anti-CD8 (clone 53-6.72). The mice received three daily injections, the first one i.v. one day before the challenge, and two i.p. injections on the day of the challenge and one day after the challenge. Control mice received 1 mg of Rat IgG (Jackson Laboratories). The depletion was monitored by staining with anti-CD4 and anti-CD8 antibodies followed by flow cytometry (BD PharMingen).
In vivo delivery of dying tumor cells, DC maturation stimuli, and tumor protection assay. Different doses of irradiated J558-Ld− cells were injected i.v. into naïve BALB/c mice either alone or with αGalCer (2 or 0.2 μg/mouse) or 24 (2 or 0.2 μg/mouse) as a DC maturation stimulus. We also compared the glycolipids to agonistic anti-CD40 mAb (1C10, 25 μg, i.p.) or the Toll-like receptor ligands, poly IC (50 μg i.p., Invivogen). 14 d later, 5×10^6 live J558 tumor cells were inoculated s.c. Tumor cell growth was measured with calipers every other day. Mice were scored positive for tumor, as soon as tumors became palpable and grew progressively. Mice were euthanized when tumor size exceeded 400 mm^2.

[5] = system: human NKT cells (Vα24/Vβ11); assay: Human dendritic cell mediated NKT cell expansion; type: cell-based; design: NKT cell expansion (Table 1): unit not given here
From the text: Human dendritic cell mediated NKT cell expansion. CD14+ monocytes were isolated from PBMC using anti-CD14 magnetic microbeads and cultured in the presence of GM-CSF and IL-4 to generate DCs, followed at day 5-6, by maturation in an inflammatory cytokine cocktail as described herein. To stimulate NKT cells, DCs were pulsed with α-GalCer and the tested analogs, and cultured with CD14− cells at a DC: responder ratio of 1:10. NKT cell expansion was monitored by flow cytometry based on the expression of the invariant NKT cell receptor (Vα24/Vβ11).

spleen CD11c+ DCs = assay: DC maturation in vivo (surface markers, flow cytometry); design: species or system mouse
Procedure: as §1
T-cell division, phagocytosis of CFSE-labeled tumor cells and acquisition of cell surface-activation markers were determined by flow cytometry. Briefly, spleens were harvested and low-density splenocytes were stained with CD11c-APC and CD8α-PE, CD11b-PE, B220-PE or CD4-PE for the up-take examination. For in vivo proliferation of P1CTL T-cells, spleens were harvested and the splenocytes suspension was staining with CD8α-Cy, Vα8α-PE, CD25-PE, CD62L-PE. For intracellular cytokine staining, splenocytes were stimulated in vitro with 1 µg/ml P1A peptide in 5 μg/ml brefeldin A (Sigma-Aldrich) at 37° C. for 4 hrs. The cells were first stained with CD8α-Cy-Chrome™, fixed and permeabilized with cytofix-cytoperm buffer (BD Biosciences), and stained with PE conjugated mAbs to IL-2 or IFN-γ.
Flow cytometry. Acquisition of cell surface-activation markers was determined by flow cytometry. […] Spleen CD11c+ DCs were isolated using anti-CD11c magnetic beads and stained with CD11c-FITC, CD8α− allophycocyanin, and PE-Conjugated I-Ad, CD40, CD80, CD86, CD119, B7-H1 and B7-DC. We used a FACSCalibur™ with data analysis in FlowJo (Tree Star).

[6] = 2 μg or 0.2 μg, 2, 6, 12 h in vivo, intracellular staining

With “3-O-sulfo-alpha-galactosylceramide [Compound 24]” the “production of IFN-γ by CD11c+DX5+ NK cells, vs. αGalCer” value [1, 6] was “significantly higher”, the “production of IL-12 by CD11c+DX5− DCs, vs. αGalCer” value [1, 6] was “significantly higher” and the “IL-12p40, IL-6 and TNF-α from DCs of primed mice” value ([1]; cultured in the presence of αCD40, ELISA and Luminex, data not shown) was “significant but comparable amounts of IL-12p40, IL-6 and TNF-α”. For the same substance, the “serum IL-12p70” value ([2]; 0.02 μg, 15 h) was roughly 900 pg/mL, the “serum IFNγ” value ([2]; 0.02 μg, 15 hours) was roughly 1200 pg/mL and the “serum IFN-γ, IL-12p70, IL-4, TNF-α and IL-2 response” value ([2]; 2 μg i.v., 2, 6, 12 and 24 h) was “significantly higher at all time points examined”. The “serum IL-12p70” value ([2]; 2 μg i.v., by 6 h) was roughly 1000 pg/mL, the “serum IFN-γ” value ([2]; 2 μg i.v., by 12 h) was roughly 3000 pg/mL and the “serum IL-12p70” value ([2]; 2 μg i.v., by 12 h) was roughly 900 pg/mL. For the same substance, the “serum IFN-γ and IL-12p70, 24 vs. αGalCer” value ([2]; all doses tested, 15 hours after i.v. injection) was “at least 2.5 fold”, the “serum IFN-γ and IL12p70 release in Jα281−/− mice” value ([2]; i.v. injection) was “lacked the ability to release IFN-γ and IL12p70 into the serum” and the “production of IFNγ, IL-13 and IL-2 by NKT cells” value [3] was “induced rapid production of IFNγ, IL-13 and IL-2”. For the same substance, the “direct stimulation of DC maturation” value [4] was “unable to directly stimulate DC maturation from bone marrow progenitors in culture”, the “protection from J558 tumor challenge” value (J558 tumor cells; 0.2 μg/mouse with 1×10^7 irradiated J558Ld− tumor cells i.v., challenge 14 days later) was 100% and the “protection from J558 tumor challenge” value (J558 tumor cells; 2 μg/mouse with 1×10^7 irradiated J558Ld− tumor cells i.v., challenge 14 days later) was 100%. The “mice protected by direct vaccination” value (J558 tumor cells; dying tumor cells with compound 24) was 80-100%, the “tumor growth after single agent alone” value (J558 tumor cells; glycolipid alone (2 or 0.2 μg/mouse) or irradiated cells alone, challenge 14 days later) was “grew progressively within 7-10 days” and the “maturation stimulus compared with ligation of CD40, TLR4 and TLR3” value (J558 tumor cells; irradiated tumor cells i.v.) was “superior relative to other DC stimuli”. The “protective immunity to irradiated tumor injected i.v. (adjuvant comparison)” value (J558 tumor cells; vs αCD40 and poly IC) was “only adjuvant that could independently induce protective immunity”, the “NKT cell expansion by loaded human DCs” value ([5]; DC to responder ratio 1:10) was “efficiently expanded human NKT cells; also recorded: comparable or higher than expansion mediated by DCs loaded with αGalCer” and the “NKT cell expansion (Table 1)” value ([5]; Donor 1) was 3.19. For the same substance, the “NKT cell expansion (Table 1)” value ([5]; Donor 2) was 5.95, the “NKT cell expansion (Table 1)” value ([5]; Donor 3) was 1.51 and the “NKT cell expansion (Table 1)” value ([5]; Donor 4) was 4.95. The “dose dependence of DC maturation” value (spleen CD11c+ DCs; 2, 0.2, 0.02 and 0.002 μg/mouse) was “correlated with the dose of glycolipid administered”, the “DC maturation response compared with αCD40 mAb and polyIC” value (spleen CD11c+ DCs; 15 h following i.v. administration) was “paralleled and exceeded those seen with other known stimuli for DC maturation in vivo” and the “surface markers on CD11c+CD8− DCs” value (spleen CD11c+ DCs; 15 hours after i.v. glycolipid) was “induced strong upregulation of CD86, B7-H1 and B7-DC but only slightly upregulated MHC II, CD40 and CD80”. The “upregulation of activation markers on CD11c+CD8+ DCs” value (spleen CD11c+ DCs; 15 hours after i.v. glycolipid, 2 or 0.2 μg per mouse) was “comparable to αGalCer”, the “DC maturation in Jα281−/− mice” value (spleen CD11c+ DCs; mice lacking NKT cells) was “did not mature” and the “phenotypic changes of DC maturation (CD40, CD86, MHC class II, B7-H1, B7-DC up, CD119 down)” value (spleen CD11c+ DCs; mouse, in vivo) was “induced similar phenotypic changes of maturation”. The “induction of splenic DC maturation in vivo” value (spleen CD11c+ DCs; surface activation markers) was “rapid and efficient inducers of splenic DC maturation in vivo”.
